Experimental data from ChEMBL document CHEMBL2034942, “Trigoxyphins H and I: two new daphnane diterpenoids from Trigonostemon xyphophylloides” (Bioorg Med Chem Lett, 2012).
pIC50: −log10 of the molar value.

Experiments:
[1] = Cytotoxicity against human SPC-A1 cells after 48 hrs by MTT assay; type: functional, cell-based; conditions: SPCA1, 48 h
Bel-7402 = experiment: Cytotoxicity against human Bel7402 cells after 48 hrs by MTT assay; type: functional, cell-based; conditions: Bel-7402, 48 h

| SMILES | pIC50 [1] | pIC50 (Bel-7402) |
| --- | --- | --- |
| C=C(C)[C@@]12OC3(c4ccccc4)O[C@@H]1[C@@H]1[C@@H]4O[C@]4(C)[C@@H](O)[C@@H]4C(=O)C(C)=C[C@@H]4[C@@]1(O3)[C@H](C)[C@@H]2OC(=O)c1ccccc1 (relative stereo) | 4.43 | 4.79 |
| C=C(C)[C@@]12OC3(c4ccccc4)O[C@@H]1[C@@H]1[C@H](OC(C)=O)[C@@](C)(OC(=O)c4ccccc4)[C@@H](OC(C)=O)[C@@]4(O)[C@@H](C[C@H](C)[C@@H]4OC(C)=O)[C@@]1(O3)[C@H](C)[C@@H]2OC(C)=O [TRIGOXYPHIN I] | 4.96 | 5.06 |
